Experimental findings from US4742062A, “Benzylpiperazine compound and pharmaceutical composition as hypolipidemic agent” (Kanebo, Ltd., priority 1985, dated 1988) are described below.

A short description of series [1]: Test of acute toxicity (LD50) in mice (Experiment 6). In kind it is in vivo. The note with it: mouse, in vivo, po, orally, 7 days observation, Weil method. From the text: (§1) ddY male mice (weighing 20-25 g, one group: 5 mice) were orally administered with a suspension of the test compound in 3 w/v % aqueous gum arabic solution.
The subject of another series is mice. The description is as above. The format is in vivo. The note with it: orally, result in words.
From the text: as §1

Regarding `Cl.Cl.Clc1ccc(CN2CCN(CC=Cc3ccc(Cl)cc3Cl)CC2)cc1` [Compound of this invention, 1-(4-Chlorobenzyl)-4-(2,4-dichlorocinnamyl)-piperazine dihydrochloride], in series [1], the LD50 (usually the dose expected to kill half of the subjects tested) at 168 h was 996 mg/kg. The acute toxicity entry in the series on mice was “low acute toxicity”.
